# Data: US8598132B2, “Glycosylated indolocarbazoles, method for obtaining same and uses thereof” (Universidad de Oviedo, priority 2008, dated 2013)
# Biological target: T1, Chk1 (Homo sapiens, UniProt O14757)
# T1 construct: purchased Carna Biosciences
# T1 sequence (O14757 1-476): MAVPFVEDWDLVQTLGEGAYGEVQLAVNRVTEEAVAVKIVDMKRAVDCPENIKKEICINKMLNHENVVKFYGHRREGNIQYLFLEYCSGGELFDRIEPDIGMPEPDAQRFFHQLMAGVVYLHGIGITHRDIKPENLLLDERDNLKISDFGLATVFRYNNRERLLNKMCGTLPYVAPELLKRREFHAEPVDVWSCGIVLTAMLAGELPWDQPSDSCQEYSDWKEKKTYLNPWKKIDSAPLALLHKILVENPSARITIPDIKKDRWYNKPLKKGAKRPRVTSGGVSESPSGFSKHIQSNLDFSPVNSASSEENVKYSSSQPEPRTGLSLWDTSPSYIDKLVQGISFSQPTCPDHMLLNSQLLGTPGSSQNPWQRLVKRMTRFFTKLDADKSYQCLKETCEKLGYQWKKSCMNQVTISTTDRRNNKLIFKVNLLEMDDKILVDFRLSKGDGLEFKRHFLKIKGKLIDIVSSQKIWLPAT
# Assay: LabChip (Caliper) kinase assay, Chk1
# Format: biochemical
# Details: for inhibition at 0.01 µM: compound at 10 nM; for inhibition at 0.01 µM / inhibition at 0.1 µM: read-out: remaining kinase activity (in %) / percentage of inhibition; for inhibition at 0.1 µM: compound at 100 nM; for IC50: ATP at Km, read-out: CI50 (the source's name)
# Method: The analysis of kinase activity described here was performed using LabChip (Caliper Life Sciences), specifically the Caliper LC3000 and the EZ Reader II instruments.
# The kinase assay used measures the conversion of a fluorescent peptide (substrate) to a phosphorylated product. The reaction mixture, in a microplate well, is introduced by a capillary in a chip where the non-phosphorylated substrate and the phosphorylated product are separated by […]. The intensity of the fluorescent signal over time is related to the reaction progress. The phosphorylated product migrates quicker than the non-phosphorylated substrate and the signals of the two forms of the peptide appear as differentiated peaks. The Caliper determines the peak height and calculates the ratio of product to the peak sum (P/(P+S)). This value is used to compare wells with compounds and wells with controls and thus determine the % of inhibition for the given product.
# The followings kinases were used for the enzymatic inhibition studies, between brackets the value of the Michaelis-Menten constant, Km, of the ATP (Adenosine triphosphate) for each kinase, in μM: obtained from Carna Biosciences: MAPKAPK2 (4.6), AurA (3.6), AurB (5), PKCζ (3.8), RSK1 (23.3), PRAK (5), Erk1 (33.4), PKD2 (32.1), CK1d (16.3), CHK1 (33), ABL (61.7), FYN (36), LYNa (17), CHK2 (57.8), MET (79.5), LCK (28.5), SRC (38), GSK3β (7.3), Erk2 (62.1), PKACα (1.7), AKT2 (186.1), INSR (871.8), p38a (396.5), AKT1(48), MSK1 (21.2), PKCβ2 (84.8), ROCK2 (3.3), PIM2 (4.9), AMPK (38.6), KDR (164.8), IRAK4 (196.5), SGK1 (121.8), SYK (33.5); obtained from Invitrogen: CDK2 (57.6), BTK (123), HGK (80); obtained from Upstate: MST2 (36.6), PKGα (16), PAK2 (1.9), IGF1R (320), FGFR1 (171), MARK1 (33), CAMK2δ (22.4), c-TAK1 (66), DYRK1a (18.1), CaMK4 (3.9), FLT3 (350), c-Raf (6.2), P70S6K (95).
# The compounds were dissolved in 100% DMSO and were diluted at 25 times the final concentration desired for the assay. In the case of the determination of Cl50, serial dilutions were made to reach eight concentrations and give rise to the inhibition curve. 1 μL of each concentration is transferred, in duplicate to a 384-well microplate. 12 μL of enzymatic buffer is added to each well containing purified kinase (several suppliers as indicated above), 100 mM HEPES, pH 7.5, 1 mM DTT (Calbiochem), 0.002% Brij-35 (Sigma) and also in presence of 10 mM MgCl2 as cofactor, except for INSR and IRAK4 wherein 10 mM MnCl2 is used instead of MgCl2. For the kinases CAMK26 and CAMK4, 1 mM CaCl2 and 6.7 μg/mL of calmodulin are also added. For KDR kinase, 0.05% of the CHAPSO detergent is added. For the c-Raf kinase, 10 mM MnCl2 is added. For PKCβ2 0.02 μg/mL of PS/PMA is added. For PKGα se 10 μM of cGMP (cyclic guanosine monophosphate) is added. The compound and the enzyme are left for 15 minutes preincubation and, then, the following are added to each well: 12 μL of peptide buffer/ATP containing 100 mM HEPES, pH 7.5, 1.5 μM peptide marker with fluorescein (specific for the corresponding kinase), ATP (at concentration KM), and 0.002% Brij-35 to start the reaction. Generally, the reactions are incubated for 1-1.5 h at ambient temperature to obtain an adequate conversion (15-40%) of the peptide to the phosphorylated product. The reactions were ended by the addition of 45 μL of buffer containing 0 mM EDTA. The microplates were read by the LabChip 3000 using a 12-channel LabChip. The P/(P+S) values were obtained as described above and the CI50 curves were generated using XIfit.
# Table 9a has the 0150 data obtained in pairs of compound-kinase selected from the compounds of formula (VII), (VIII), (IX), (XVI), (XVII) and (XVIII) after taking inhibition measurements at 100 nM and 10 nM. Those couples that provide >70% of inhibition at 10 nM were consider for measuring its IC50. […]
SMILES,inhibition at 0.01 µM [%],inhibition at 0.1 µM [%],IC50 [nM]
"C[C@@H]1O[C@@H](n2c3ccccc3c3c4c(c5c6ccccc6[nH]c5c32)C(=O)NC4=O)[C@H](O)[C@H](O)[C@H]1O [formula (III), N^13-1′-β-L-rhamnosylarcyriaflavin]",-3,15,–
"C[C@@H]1O[C@@H](n2c3ccccc3c3c4c(c5c6ccccc6[nH]c5c32)C(=O)NC4=O)C[C@H](O)[C@H]1O [formula (IV), N^13-1′-β-L-olivosylarcyriaflavin]",5,35,–
"C[C@@H]1O[C@@H](n2c3ccccc3c3c4c(c5c6ccccc6[nH]c5c32)C(=O)NC4=O)C[C@@H](O)[C@H]1O [formula (V), N^13-1′-β-L-digitoxosylarcyriaflavin]",45,81,–
"C[C@H]1O[C@@H](n2c3ccccc3c3c4c(c5c6ccccc6[nH]c5c32)C(=O)NC4=O)C[C@@H](O)[C@@H]1O [formula (VI), N^13-1′-β-D-olivosylarcyriaflavin]",2,50,–
"C[C@]12O[C@H]([C@H](O)[C@H](O)[C@H]1O)n1c3ccccc3c3c4c(c5c6ccccc6n2c5c31)C(=O)NC4=O [formula (VII), N^12-5′(S)-N^13-1′-(R)-L-rhamnosylarcyriaflavin]",–,–,1
"C[C@]12O[C@H](C[C@H](O)[C@H]1O)n1c3ccccc3c3c4c(c5c6ccccc6n2c5c31)C(=O)NC4=O [formula (VIII), N^12-5′(S)-N^13-1′-(R)-L-olivosylarcyriaflavin]",–,–,4.9
"C[C@@H]1O[C@@H](n2c3ccccc3c3c4c(c5c6ccccc6[nH]c5c32)CNC4=O)[C@H](O)[C@H](O)[C@H]1O [formula (XII), N^13-1′-β-L-rhamnosyl-k252c]",2,8,–
"C[C@@H]1O[C@@H](n2c3ccccc3c3c4c(c5c6ccccc6[nH]c5c32)CNC4=O)C[C@H](O)[C@H]1O [formula (XIII), N^13-1′-β-L-olivosyl-k252c]",1,27,–
"C[C@@H]1O[C@@H](n2c3ccccc3c3c4c(c5c6ccccc6[nH]c5c32)CNC4=O)C[C@@H](O)[C@H]1O [formula (XIV), N^13-1′-β-L-digitoxosyl-k252c]",6,46,–
"C[C@H]1O[C@@H](n2c3ccccc3c3c4c(c5c6ccccc6[nH]c5c32)CNC4=O)C[C@@H](O)[C@@H]1O [formula (XV), N^13-1′-β-D-olivosyl-k252c]",4,20,–
"C[C@]12O[C@H]([C@H](O)[C@H](O)[C@H]1O)n1c3ccccc3c3c4c(c5c6ccccc6n2c5c31)CNC4=O [formula (XVI), N^12-5′(S)-N^13-1′-(R)-L-rhamnosyl-k252c]",–,–,2.4
"C[C@]12O[C@H](C[C@@H](O)[C@H]1O)n1c3ccccc3c3c4c(c5c6ccccc6n2c5c31)CNC4=O [formula (XVIII), N^12-5′(S)-N^13-1′-(R)-L-digitoxosyl-k252c]",–,–,> 10
